# How the values were obtained:
# [1] = tested on: Mycobacterium tuberculosis; assay: Antitubercular activity against Mycobacterium tuberculosis H37Rv assessed as inhibition of bacterial growth; format: functional
# [2] = tested on: Mycobacterium tuberculosis; assay: Inhibition of wild type Mycobacterium tuberculosis mc2 6020 cytochrome bd oxidase assessed as inhibition of oxygen consumption rate at 10 to 25 uM measured after 5 days by Methylene blue dye based assay; conditions: dose 10-25 µM, time 5.0 day
# [3] = tested on: Mycobacterium tuberculosis; assay: Antibacterial activity against Mycobacterium tuberculosis clinical isolate N0145 assessed as reduction in ATP level; format: functional, organism-based
# [4] = tested on: Mycobacterium tuberculosis; assay: Antibacterial activity against Mycobacterium tuberculosis H37Rv mc2 6206 assessed as inhibition of bacterial growth by resazurin dye based assay; format: functional
# [5] = tested on: Mycobacterium tuberculosis; assay: Antibacterial activity against Mycobacterium tuberculosis H37Rv assessed as reduction in bacterial growth incubated for 7 days by broth dilution method; format: functional; conditions: 168 h, time 7 day
# [6] = tested on: Mycobacterium tuberculosis; assay: Antimycobacterial activity against Mycobacterium tuberculosis Rv0678; format: functional
# [7] = tested on: Mycobacterium tuberculosis; assay: Antibacterial activity against Mycobacterium tuberculosis H37Rv assessed as reduction in bacterial growth; format: functional, organism-based
# [8] = tested on: Mycobacterium tuberculosis; assay: Antibacterial activity against Mycobacterium tuberculosis clinical isolate N0145 assessed as reduction in bacterial growth; format: functional, organism-based
# [9] = tested on: Mycobacterium tuberculosis; assay: Antibacterial activity against Mycobacterium tuberculosis H37Rv assessed as inhibition of bacterial growth; format: functional
# [10] = Oral bioavailability in mouse; format: ADME, organism-based; conditions: in vivo
# [11] = tested on: Mycobacterium tuberculosis; assay: Antibacterial activity against Mycobacterium tuberculosis H37Rv cytochrome bd oxidase assessed as reduction in total cellular ATP level; format: functional, organism-based
# [12] = Half life in mouse; format: ADME, organism-based; conditions: in vivo
# [13] = tested on: Mycobacterium tuberculosis; assay: Antitubercular activity against XDR Mycobacterium tuberculosis assessed as bacterial growth inhibition; format: functional
smiles,measurement,setting,value
CCc1nc2ccc(Cl)cn2c1C(=O)NCc1ccc(N2CCC(c3ccc(OC(F)(F)F)cc3)CC2)cc1 [TELACEBEC],MIC,[1],0.0015 µM
same,inhibition,[2],60%
same,IC50,[3],0.1 µM
NC(=O)NC(=O)c1nc(-c2cc3ccccc3o2)c(N)nc1N,MIC,[4],9 µM
same,MIC,[5],4 µM
same,MIC,[6],12 µM
CC(C)(C)c1ccc(CCNc2ncnc3ccsc23)cc1,IC50,[7],5.8 µM
same,IC50,[8],8.5 µM
CC(C)=CCC/C(C)=C/CC/C(C)=C/Cc1c(C)[nH]c2ccccc2c1=O [AURACHIN D],MIC,[1],> 100 µg/mL
same,inhibition,[2],60%
same,MIC,[9],> 100 µg/mL
Fc1ccc2c(NCCc3ccc(OC(F)(F)F)cc3)ncnc2c1,IC50,[7],7.6 µM
same,IC50,[8],0.2 µM
CC(C)(C)c1ccc(CCNc2ncnc3ccccc23)cc1,IC50,[7],5.8 µM
same,IC50,[8],0.1 µM
FC(F)(F)c1ccc(Oc2ccc(Nc3ncnc4ccccc34)cc2)cc1,bioavailability,[10],58%
same,IC50,[11],2.8 µM
same,half-life,[12],64 h
same,MIC,[13],≤ 1 µM

# Reference: ChEMBL document CHEMBL5344478, “Cytochrome bd oxidase: an emerging anti-tubercular drug target” (RSC Med Chem, 2024)
